For test [1], the target named is GDP-bound NRAS wild-type protein (Homo sapiens, UniProt P01111). As to the kind of experiment: Binding to NRAS by surface plasmon resonance (SPR), Single Cycle Kinetics. In general terms: In SPR one partner is held on a chip, and binding of the other changes the refractive index at the surface.
The target of test [2] is GDP-bound HRAS wild-type protein (Homo sapiens, UniProt P01112). As to the kind of experiment: Binding to HRAS by surface plasmon resonance (SPR), Single Cycle Kinetics.
GDP-bound HRAS wild-type protein, sequence (P01112 whole entry): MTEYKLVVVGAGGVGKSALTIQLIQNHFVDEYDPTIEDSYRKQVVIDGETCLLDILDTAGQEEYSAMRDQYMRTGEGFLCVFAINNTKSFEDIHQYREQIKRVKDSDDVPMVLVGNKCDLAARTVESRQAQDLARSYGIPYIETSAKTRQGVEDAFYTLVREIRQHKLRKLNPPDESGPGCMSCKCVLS
The mark [3] stands for this setting: KD ratio NRAS/KRAS, class symbols.
[4] abbreviates: KD ratio HRAS/KRAS, class symbols.

Molecules are shown by their SMILES. *1 amine or outer side, *2 acyl side, *3 side chain or, on linkers, in order; H or OH if unused. Where a SMILES comes first, the peptide text is derived from it. Bridges are numbered along the chain shown (N, C = ends). [ ]: non-standard residue; d: D form. The star is where a group is joined. hPhe(3-Cl-4-CF3) = N[C@@H](CCc1ccc(C(F)(F)F)c(Cl)c1)C(=O)O; NPrPhe(4-CF3) = CCCN[C@@H](Cc1ccc(C(F)(F)F)cc1)C(=O)O; NEtPhe(4-CF3) = CCN[C@@H](Cc1ccc(C(F)(F)F)cc1)C(=O)O; hPhe(3,4-Cl2) = N[C@@H](CCc1ccc(Cl)c(Cl)c1)C(=O)O; NMeGly(cPent) = CN[C@H](C(=O)O)C1CCCC1; NMeD = CN[C@@H](CC(=O)O)C(=O)O; NMeL = CN[C@@H](CC(C)C)C(=O)O; X51 = O=C(CN(CCF)[*:1])[*:2]; Morpholide = C1CN(*)CCO1; NMeA = CN[C@@H](C)C(=O)O; Ac5c = NC1(C(=O)O)CCCC1; Aze = O=C(O)[C@@H]1CCN1; Sar = CNCC(=O)O

GDP-bound NRAS wild-type protein, sequence (P01111 whole entry): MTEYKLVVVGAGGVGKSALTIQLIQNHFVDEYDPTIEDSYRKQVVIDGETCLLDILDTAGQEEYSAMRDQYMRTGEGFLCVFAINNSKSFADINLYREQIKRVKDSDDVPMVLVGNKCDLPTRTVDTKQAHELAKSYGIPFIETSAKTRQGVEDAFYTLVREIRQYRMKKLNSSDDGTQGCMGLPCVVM

Take `CC[C@H](C)[C@@H]1NC(=O)[C@H](CC(C)C)N(C)C(=O)C[C@@H](C(=O)N2CCOCC2)N(C)C(=O)[C@H](C2CCCC2)N(C)C(=O)C2(CCCC2)NC(=O)[C@@H]2CCCN2C(=O)[C@H](CCc2ccc(Cl)c(Cl)c2)NC(=O)CN(C)C(=O)[C@H](Cc2ccc(C(F)(F)F)cc2)N(CC)C(=O)[C@@H]2CCN2C(=O)[C@H](C)N(C)C1=O` [PP0223] ([NMeL]I[NMeA][Aze][NEtPhe(4-CF3)][Sar][hPhe(3,4-Cl2)]P[Ac5c][NMeGly(cPent)][NMeD]-Morpholide; lactam N-11): the “NRAS/KRAS (ratio of KD for GDP-bound NRAS wild-type to KD for KRAS)” value in test [1] (KD ratio NRAS/KRAS, SPR) was “C (A compound having a KD ratio of 0.1 or more and less than 3 is denoted as C)”. Besides, in test [2] (KD ratio HRAS/KRAS, SPR), the “HRAS/KRAS (ratio of KD for GDP-bound HRAS wild-type to KD for KRAS)” value is “C (A compound having a KD ratio of 0.1 or more and less than 3 is denoted as C)”.

Turning to `CCO[C@@H]1C[C@H]2C(=O)NC3(CC(C)(C)C3)C(=O)N(C)[C@@H](C(CC)CC)C(=O)N(C)[C@H](C(=O)N3CCCCC3)CC(=O)N(C)[C@H]3CCC/C=C/c4ccc(cc4)C[C@@H](C(=O)N(C)CC(=O)N[C@@H](CCc4ccc(Cl)c(Cl)c4)C(=O)N2C1)N1CC/C=C\C[C@@H](C1=O)N(C)C(=O)CN(C)C(=O)[C@H]([C@@H](C)CC)NC3=O` [PP2953], in test [1] (setting [3]), the “NRAS/KRAS (ratio of KD value with respect to GDP-bound NRAS wild-type protein to KD value with respect to KRAS)” value was “AA (a compound having 20 or more is denoted as AA)”. Moreover, the “HRAS/KRAS (ratio of KD value with respect to GDP-bound HRAS wild-type protein to KD value with respect to KRAS)” value in test [2] (setting [4]) was “A (a compound having 10 or more and less than 20 is denoted as A)”.

On to `CC[C@H](C)[C@@H]1NC(=O)[C@H](C)N(C)C(=O)C[C@@H](C(=O)N(C)C)N(C)C(=O)[C@H](C2CCCC2)N(C)C(=O)C2(CCC2)NC(=O)[C@@H]2CC(F)(F)CN2C(=O)[C@H](CCc2cc(F)c(C(F)(F)F)c(F)c2)NC(=O)CN(C)C(=O)[C@H](Cc2ccc(C(F)(F)F)cc2)N2CCCC[C@@H](C2=O)N(C)C(=O)CN(C)C1=O` [PP0584], for which the “NRAS/KRAS (ratio of KD value with respect to GDP-bound NRAS wild-type protein to KD value with respect to KRAS)” value in test [1] (KD ratio NRAS/KRAS, SPR) is “C (A compound having a KD ratio of 0.1 or more and less than 3 is denoted as C)”. The “HRAS/KRAS (ratio of KD value with respect to GDP-bound HRAS wild-type protein to KD value with respect to KRAS)” value in test [2] (KD ratio HRAS/KRAS, SPR) was “C (A compound having a KD ratio of 0.1 or more and less than 3 is denoted as C)”.

Regarding `CCC[C@H]1C(=O)N[C@@H](CC(C)C)C(=O)N2C[C@@H](OC)C[C@H]2C(=O)N(C)[C@H]2C/C=C\CCN(C2=O)[C@@H](Cc2ccc(C)cc2)C(=O)N(C)CC(=O)N[C@@H](CCc2cc(F)c(C(F)(F)F)c(F)c2)C(=O)N2C[C@H](OCC)C[C@H]2C(=O)NC2(CCC2)C(=O)N(C)[C@@H](C2CCCC2)C(=O)N(C)[C@H](C(=O)N(C)C)CC(=O)N1C` [PP2547], the “NRAS/KRAS (ratio of KD value with respect to GDP-bound NRAS wild-type protein to KD value with respect to KRAS)” value in test [1] (setting [3]) was “A (a compound having 10 or more and less than 20 is denoted as A)”. For the same compound, in test [2] (setting [4]), the “HRAS/KRAS (ratio of KD value with respect to GDP-bound HRAS wild-type protein to KD value with respect to KRAS)” value was “B (a compound having 3 or more and less than 10 is denoted as B)”.

As to `CCC[C@H]1C(=O)N[C@@H]([C@@H](C)CC)C(=O)N(C)CC(=O)N(C)[C@H]2C/C=C\CCN(C2=O)[C@@H](Cc2ccc(C(F)F)cc2)C(=O)N(C)CC(=O)N[C@@H](CCc2ccc(Cl)c(Cl)c2)C(=O)N2C[C@H](OCC)C[C@H]2C(=O)NC2(CC(C)(C)C2)C(=O)N(C)[C@@H](C(CC)CC)C(=O)N(C)[C@H](C(=O)N(C)C)CC(=O)N1C` [PP2531], the “NRAS/KRAS (ratio of KD value with respect to GDP-bound NRAS wild-type protein to KD value with respect to KRAS)” value in test [1] (setting [3]) is given as “AA (a compound having 20 or more is denoted as AA)”. Besides, in test [2] (setting [4]), the “HRAS/KRAS (ratio of KD value with respect to GDP-bound HRAS wild-type protein to KD value with respect to KRAS)” value is “A (a compound having 10 or more and less than 20 is denoted as A)”.

For `CCCN1C(=O)CN(C)C(=O)CN(CCF)C(=O)[C@H]([C@@H](C)CC)NC(=O)[C@H](CC(C)C)N(C)C(=O)C[C@@H](C(=O)N2CCOCC2)N(C)C(=O)[C@H](C2CCCC2)N(C)C(=O)C2(CCCC2)NC(=O)[C@@H]2CCCN2C(=O)[C@H](CCc2ccc(C(F)(F)F)c(Cl)c2)NC(=O)CN(C)C(=O)[C@@H]1Cc1ccc(C(F)(F)F)cc1` [PP0751] ([NMeL]I[X51][Sar][NPrPhe(4-CF3)][Sar][hPhe(3-Cl-4-CF3)]P[Ac5c][NMeGly(cPent)][NMeD]-Morpholide; lactam N-11), the “NRAS/KRAS (ratio of KD value with respect to GDP-bound NRAS wild-type protein to KD value with respect to KRAS)” value in test [1] (KD ratio NRAS/KRAS, SPR) is “B (a compound having 3 or more and less than 10 is denoted as B)”. In test [2] (KD ratio HRAS/KRAS, SPR), the “HRAS/KRAS (ratio of KD value with respect to GDP-bound HRAS wild-type protein to KD value with respect to KRAS)” value was “C (A compound having a KD ratio of 0.1 or more and less than 3 is denoted as C)”.

Regarding `CCO[C@@H]1C[C@H]2C(=O)NC3(CCC3)C(=O)N(C)[C@@H](C(CC)CC)C(=O)N(C)[C@H](C(=O)N(C)C)CC(=O)N(C)[C@@H](CC(C)C)C(=O)N[C@@H]([C@@H](C)CC)C(=O)N(C)CC(=O)N(C)[C@H]3C/C=C\CCN(C3=O)[C@@H](Cc3ccc(C(F)(F)F)cc3)C(=O)N(C)CC(=O)N[C@@H](CCc3cc(F)c(C(F)(F)F)c(F)c3)C(=O)N2C1` [PP1201], the “NRAS/KRAS (ratio of KD value with respect to NRAS to KD value with respect to KRAS)” value in test [1] (KD ratio, GDP-bound NRAS wild-type vs GDP-bound KRAS wild-type, SPR) is recorded as “AA (a compound having 20 or more is denoted as AA)”. Further, the “HRAS/KRAS (ratio of KD value with respect to HRAS to KD value with respect to KRAS)” value in test [2] (KD ratio, GDP-bound HRAS wild-type vs GDP-bound KRAS wild-type, SPR) was “A (a compound having 10 or more and less than 20 is denoted as A)”.

Source of the values: patent publication US20250230193A1, “CYCLIC COMPOUND HAVING SELECTIVE KRAS INHIBITORY EFFECT ON HRAS AND NRAS” (CHUGAI SEIYAKU KABUSHIKI KAISHA, priority 2022, published 2025).
